In one series the target is T1, LOXL2 (Homo sapiens, UniProt Q9Y4K0).
T1 sequence (Q9Y4K0 26-774): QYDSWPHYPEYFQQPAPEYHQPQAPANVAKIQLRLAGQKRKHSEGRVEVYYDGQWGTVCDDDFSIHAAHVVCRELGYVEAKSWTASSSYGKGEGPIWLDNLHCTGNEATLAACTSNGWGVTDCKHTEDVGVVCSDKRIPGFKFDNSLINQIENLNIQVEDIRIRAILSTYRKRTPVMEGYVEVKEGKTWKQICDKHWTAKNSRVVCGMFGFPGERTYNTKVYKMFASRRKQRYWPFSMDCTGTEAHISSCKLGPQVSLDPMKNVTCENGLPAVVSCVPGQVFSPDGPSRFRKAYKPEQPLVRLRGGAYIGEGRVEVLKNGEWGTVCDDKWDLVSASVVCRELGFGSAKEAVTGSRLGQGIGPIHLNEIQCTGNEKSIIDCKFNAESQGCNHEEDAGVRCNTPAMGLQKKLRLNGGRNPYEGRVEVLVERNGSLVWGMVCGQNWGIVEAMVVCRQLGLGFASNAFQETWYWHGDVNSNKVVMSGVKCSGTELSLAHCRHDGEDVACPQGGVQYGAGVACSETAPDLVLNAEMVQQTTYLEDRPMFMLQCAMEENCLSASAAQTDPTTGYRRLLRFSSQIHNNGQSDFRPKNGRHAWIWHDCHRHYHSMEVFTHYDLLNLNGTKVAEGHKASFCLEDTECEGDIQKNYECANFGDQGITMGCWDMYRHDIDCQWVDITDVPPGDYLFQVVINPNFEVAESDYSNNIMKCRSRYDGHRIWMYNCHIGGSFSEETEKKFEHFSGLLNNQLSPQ
As to the kind of experiment: Lysyl oxidase activity assay with recombinant LOXL2 protein. Further details: purchased Abcam, USA. The format is biochemical. The following applies: for inhibition of recombinant LOXL2: 10 μM compound. The protocol: For in vitro lysyl oxidase activity (for recombinant proteins), Lysyl Oxidase Activity kit (Biovision, USA) was used according to manufacturer's instructions. Briefly, 1 μg of LOX (Novus, USA), 0.2 μg of LOXL1 (Abcam, USA) and 0.1 μg of LOXL2 (Abcam, USA) were incubated with the reagent mix in the presence of inhibitors or vehicle. Lysyl oxidase activity of the wells was measured in multimode reader (every 30 sec, total 2.5 hours) in […] mode.

In another series the test system is Caki-1 cells. Briefly: ECM crosslinking in kidney cancer cells. Conditions: 6232 at 10 uM, BAPN at 10 mM. The series is classed as cell-based, human. The protocol: Immunofluorescence staining of cells was done in μ-Slide 8-well glass bottom chambers (Ibidi, Germany). Cells were fixed with 4% paraformaldehyde for 20 min, permeabilized with 0.5% Triton X-100 for 10 min and blocked in 5% BSA-PBS. Samples were incubated with primary (Collagen I, Fibronectin, F-actin, a-SMA) and secondary Alexa Fluor 647 or 488-labeled antibodies for 1.5 hours at room temperature. Cells were also counterstained with DAPI for 5 min. Images were acquired using ZEN 2012 SP5 (Black) LSM 700 (Carl Zeiss, DE).

The next series is described as follows: In vivo toxicity testing. Further details: species or system BALB/c mice. How it is done:
FIG. 41. In vivo testing of 6403 with respect to PK and toxicity. A. Summary of PK parameters of 6403 given orally with 50 mg/kg, n=3. B. H&E staining of organs of BALB/c mice treated daily with 50 or 200 mg/kg of 6403 for one week. C. Body weight of mice treated with vehicle or 25, 50, 75, 100 or 200 mg/kg of 6403 for 5 days. D. Cell-free enzymatic MAO-A and MAO-B assay.

The next series has as its system ACHN ccRCC xenografts. As to the kind of experiment: Kidney cancer xenograft model. The format is in vivo, BALB/c nude mice. Conditions: 50 mg/kg, PO, daily. How it is done: FIG. 42. Efficacy of 6403 as a single agent in ccRC xenografts. Tumor volume (A), % body weight change (B) and blood count (C) of 6403-treated (50 mg/kg, PO, daily) ACHN xenografts. μg=microgram. LOX expression in ACHN cells is provided by an inset next to the graph in A.
For kidney xenografts, 4×10^6 ACHN cells were mixed with 1:1 DMEM and matrigel and injected into the flank of the BALB/c nude mice. Mouse weight and tumor volumes were measured every second day using calipers. When tumor sizes reach 100 mm^3, mice were randomly distributed into vehicle and 6403 treatment group. Mice were treated daily by oral gavage with vehicle v (50% PEG400, 1% Tween 80 in acetate buffer pH=4) or 50 mg/kg of 6403.

For the next series, the system named is TM01278 PDX organoids. As to the kind of experiment: PDX-derived TNBC organoids, combination with doxorubicin. The series is classed as cell-based, human. Conditions: combination with doxorubicin (50 nM) vs single agents, 9 days. How it is done: FIG. 36. Combination of 6403 and 6415 with doxorubicin reduced the growth of the TNBC organoids. A. Representative images of TM01278 PDX organoids at day 0 and day 9 after treatment with doxorubicin (50 nM) and 6403 and 6415 treatments, alone or in combination. B. Quantification of organoid diameter and viability upon combination therapy for 9 days.
TNBC organoids were established from a fresh surgical tissue by cutting the tumor into small pieces and incubating in collagenase A solution with ROCK inhibitor on a shaker at 37° C. for 30 minutes. The collagenase activity was inhibited by adding FBS, and pipetting was done to ensure the formation of almost a single cell solution. After several washes with PBS, the cell pellet was dissolved in matrigel. Breast organoid media containing ROCK and GSK inhibitors was added after the Matrigel solidified. See, Sachs, N. et al. A Living Biobank of Breast Cancer Organoids Captures Disease Heterogeneity. Cell 172, 373-386 e310, doi:10.1016/j.cell.2017.11.010 (2018). For drug testing studies, organoids were disrupted to single cells by digesting at 37° C. for 30 mins with TrypLE (A1217701, Gibco, NY, USA) in the presence of 10 μM Rock inhibitor (s1049, Selleckchem, TX, USA). Organoids were plated into wells of 96 well plate (20.000 cells/well) on a collagen-coated surface with media containing 2% Matrigel (356252, Corning, NY, USA). Drugs were added 72 hours after plating. Cells were grown in the presence of drug or vehicle for 9 days, and photos were taken from each well to show the organoid size. Organoid viability was measured by using 3D Cell Titer Glo (Promega, USA) kit.

We go through 3 compounds from patent US12642791B2, “Inhibitors of lysyl oxidases” (UNIVERSITY OF SOUTH CAROLINA, priority 2021, dated 2026).

Each structure is given as a SMILES string.

As to `Cc1nc(N)sc1-c1csc(Nc2ccc([N+](=O)[O-])cc2)n1` [compound 6232, 4-methyl-5-[2-(4-nitroanilino)thiazol-4-yl]thiazol-2-amine], the “inhibition of recombinant LOXL2” value on LOXL2 is “moderately inhibit”. The ECM crosslinking result in the series with Caki-1 cells is on record as “decrease in ECM crosslinking”.
As for `CC(=O)Nc1ccc(Nc2nc(-c3sc(N)nc3C)cs2)cc1` [compound 6403, N-[4-[[4-(2-amino-4-methyl-thiazol-5-yl)thiazol-2-yl]amino]phenyl]acetamide], in “In vivo toxicity testing” (200 mg/kg vs vehicle), the blood cell counts result is “No significant effect”. Further, in the series “In vivo toxicity testing” (50 or 200 mg/kg daily for one week), the “organ damage (H&E staining of organs)” value is listed as “did not lead to any observable organ damage”. Also, the body weight result in the series “In vivo toxicity testing” (different doses administered daily (25-200 mg/kg, 5 days)) was “No significant effect”. Further, in the series on ACHN ccRCC xenografts, the body weight result is “without impacting” and the “counts of major blood cells” value is recorded as “without impacting”. Besides, the tumor growth result in the series on ACHN ccRCC xenografts (single agent) is recorded as “successfully reduced the tumor growth”. In the series with TM01278 PDX organoids, the organoid size result was “significantly decreased organoid size” and the organoid viability entry is on record as “significantly decreased”.
`Cc1nc(N)sc1-c1csc(N(C)c2ccc(O)cc2)n1` [compound 6415, 4-[[4-(2-amino-4-methyl-thiazol-5-yl)thiazol-2-yl]-methyl-amino]phenol]: at LOXL2, the “inhibition of recombinant LOXL2” value was “inhibits both LOX and LOXL2 recombinant proteins”. Moreover, the “inhibition of recombinant LOXL2 activity” value at LOXL2 (5 and 10 uM) was “inhibited the activity of LOX and LOXL2 recombinant proteins”. Besides, in the series on TM01278 PDX organoids, the organoid size entry was “significantly decreased organoid size” and the organoid viability result is “significantly decreased”.
